In US8980916B2, “Factor IXa inhibitors” (Merck Sharp & Dohme Corp., priority 2011, dated 2015):

Biological target: human Factor IXa (Homo sapiens (Human), UniProt P00740)
Assay: Factor IXa enzyme assay (SPECTROFLUOR FIXa fluorogenic substrate)
Format: biochemical
Details: human Factor IXa 2.0 μg/ml, SPECTROFLUOR FIXa 100 μM, 60 minutes at room temperature, pH 8.0
Experimental: Inhibitory activity against Factor IXa was tested using the substrate SPECTROFLUOR FIXa (American Diagnostica Inc.; 500 West Avenue, Stamford, Conn. 06902 USA; Pr. No. 299F) and human Factor IXa (American Diagnostica Inc.; Pr. No. 449b). Test substances dissolved in buffer A (50 mM α,α,α-tris(hydroxymethyl)methylamine (Tris), 100 mM NaCl, 5 mM CaCl2, 15% (v/v) ethylene glycol, pH 8.0) were mixed with Factor IXa (2.0 μg/ml final concentration). The enzyme reaction was started by addition of SPECTROFLUOR FIXa (100 μM final concentration). After incubation for 60 minutes at room temperature, the reaction was stopped by the addition of 20% (v/v) acetic acid solution, and then fluorescence value measured (Excitation Wavelength: 355 nm, Emission Wavelength; 460 nm) in a microtiter plate reader (ARVO 1420 Multilabel Counter; PerkinElmer).
IC50 was calculated from a dilution series of the test substance with the aid of the software, Symix Assay Explorer (Symyx Technologies, Inc.).

Sequence of human Factor IXa (P00740 227-461): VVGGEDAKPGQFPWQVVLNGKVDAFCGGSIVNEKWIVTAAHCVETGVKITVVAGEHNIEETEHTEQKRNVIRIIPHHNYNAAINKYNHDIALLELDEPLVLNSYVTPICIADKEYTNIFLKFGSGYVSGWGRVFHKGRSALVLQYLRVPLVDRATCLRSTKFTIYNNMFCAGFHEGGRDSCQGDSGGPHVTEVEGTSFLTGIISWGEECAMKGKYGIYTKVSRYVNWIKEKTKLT
Sequence of human Factor IXa (P00740 47-191 partner): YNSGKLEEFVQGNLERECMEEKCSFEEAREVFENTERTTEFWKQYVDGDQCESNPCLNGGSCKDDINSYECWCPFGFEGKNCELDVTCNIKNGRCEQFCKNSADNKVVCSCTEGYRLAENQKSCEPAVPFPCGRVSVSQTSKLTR

IC50 [nM] | Structure (SMILES)
1000 | CC(C)(C)c1ccc(-n2cccc(C(O)C(=O)Nc3ccc4c(N)noc4c3)c2=O)cc1 (racemic) [Example 5, (±)-N-(3-aminobenzo[d]isoxazol-6-yl)-2-(1-(4-tert-butylphenyl)-2-oxo-1,2-dihydropyridin-3-yl)-2-hydroxyacetamide]
54 | CC(C)(C)c1ccc(-n2cccc(C(O)C(=O)Nc3ccc4c(N)nccc4c3)c2=O)cc1 (racemic) [Example 6, (±)-N-(1-aminoisoquinolin-6-yl)-2-(1-(4-tert-butylphenyl)-2-oxo-1,2-dihydropyridin-3-yl)-2-hydroxyacetamide]
